Test system: influenza virus genome replication and transcription in yeast cells
Assay type: cell-based

C[C@@H]1C[C@@H]([C@H](O)CC2CC(=O)NC(=O)C2)C(=O)[C@@H](C)C1 [cycloheximide]
synthesis level of viral RNAs: markedly reduced

Reference: patent publication US20100304375A1, “Influenza Virus Genome Replication and Transcription System in Yeast Cells” (UNIVERSITY OF TSUKUBA, priority 2007, published 2010)
